Targets include PIK3CG (human) (UniProt P48736); PIK3CD (Human) (UniProt O00329); PIK3CB (Human) (UniProt P42338); PIK3CA (human) (UniProt P42336).
What all share (experiment): Enzyme Assay

Chain of PIK3CD (Human) (O00329 whole entry, looked up): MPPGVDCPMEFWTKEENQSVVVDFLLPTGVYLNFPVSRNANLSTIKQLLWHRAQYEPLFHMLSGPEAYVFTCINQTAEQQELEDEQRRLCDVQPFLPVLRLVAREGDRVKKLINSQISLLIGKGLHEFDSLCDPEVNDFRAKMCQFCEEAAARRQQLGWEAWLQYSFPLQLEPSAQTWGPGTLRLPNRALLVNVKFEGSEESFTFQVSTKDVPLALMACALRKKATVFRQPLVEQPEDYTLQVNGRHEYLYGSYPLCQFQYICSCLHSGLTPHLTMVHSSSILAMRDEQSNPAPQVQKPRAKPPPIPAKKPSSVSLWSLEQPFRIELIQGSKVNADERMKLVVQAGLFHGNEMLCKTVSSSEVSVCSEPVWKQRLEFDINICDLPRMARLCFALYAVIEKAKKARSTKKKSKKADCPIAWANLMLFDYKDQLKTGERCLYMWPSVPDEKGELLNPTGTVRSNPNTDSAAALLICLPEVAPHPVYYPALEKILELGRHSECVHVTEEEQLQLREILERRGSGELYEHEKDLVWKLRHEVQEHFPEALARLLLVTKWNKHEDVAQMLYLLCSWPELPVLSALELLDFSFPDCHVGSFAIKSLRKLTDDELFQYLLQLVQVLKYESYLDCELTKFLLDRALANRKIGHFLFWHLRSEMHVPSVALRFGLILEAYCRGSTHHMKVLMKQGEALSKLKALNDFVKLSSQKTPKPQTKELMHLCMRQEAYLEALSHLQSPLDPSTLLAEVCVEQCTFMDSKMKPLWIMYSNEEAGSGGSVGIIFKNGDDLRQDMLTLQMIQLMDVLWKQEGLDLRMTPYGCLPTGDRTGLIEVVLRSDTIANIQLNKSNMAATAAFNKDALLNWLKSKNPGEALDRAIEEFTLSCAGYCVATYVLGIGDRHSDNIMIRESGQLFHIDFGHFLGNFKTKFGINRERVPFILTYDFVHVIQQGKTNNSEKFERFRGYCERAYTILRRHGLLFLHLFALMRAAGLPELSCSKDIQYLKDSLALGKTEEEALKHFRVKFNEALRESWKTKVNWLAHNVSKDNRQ
Chain of PIK3CB (Human) (P42338 whole entry, looked up): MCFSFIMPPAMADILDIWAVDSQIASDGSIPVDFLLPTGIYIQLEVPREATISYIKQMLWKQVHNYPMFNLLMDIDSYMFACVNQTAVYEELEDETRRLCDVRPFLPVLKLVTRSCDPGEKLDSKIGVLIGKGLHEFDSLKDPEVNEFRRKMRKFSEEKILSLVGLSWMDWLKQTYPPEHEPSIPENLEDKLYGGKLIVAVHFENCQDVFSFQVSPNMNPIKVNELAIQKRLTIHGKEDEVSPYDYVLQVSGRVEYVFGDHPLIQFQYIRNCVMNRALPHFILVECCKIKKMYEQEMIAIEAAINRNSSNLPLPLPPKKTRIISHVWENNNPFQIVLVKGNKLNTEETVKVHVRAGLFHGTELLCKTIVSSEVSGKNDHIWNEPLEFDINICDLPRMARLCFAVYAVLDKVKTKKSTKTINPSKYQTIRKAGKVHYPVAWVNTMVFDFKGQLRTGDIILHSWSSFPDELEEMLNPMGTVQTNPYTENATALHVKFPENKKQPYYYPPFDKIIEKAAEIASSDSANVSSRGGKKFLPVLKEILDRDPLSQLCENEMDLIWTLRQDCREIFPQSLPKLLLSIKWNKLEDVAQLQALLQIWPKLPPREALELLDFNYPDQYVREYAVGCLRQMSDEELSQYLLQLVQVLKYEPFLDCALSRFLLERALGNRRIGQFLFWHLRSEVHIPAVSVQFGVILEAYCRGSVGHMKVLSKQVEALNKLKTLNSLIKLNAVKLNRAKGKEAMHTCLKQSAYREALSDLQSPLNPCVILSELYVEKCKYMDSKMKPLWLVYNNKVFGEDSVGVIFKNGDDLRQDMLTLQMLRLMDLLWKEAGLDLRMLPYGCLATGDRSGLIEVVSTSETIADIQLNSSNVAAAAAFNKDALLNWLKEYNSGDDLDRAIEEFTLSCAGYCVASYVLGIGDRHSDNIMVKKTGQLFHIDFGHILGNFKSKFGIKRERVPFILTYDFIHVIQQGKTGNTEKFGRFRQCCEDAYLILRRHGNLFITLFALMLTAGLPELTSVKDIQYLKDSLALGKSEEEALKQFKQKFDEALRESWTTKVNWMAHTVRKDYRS
Chain of PIK3CA (human) (P42336 whole entry, looked up): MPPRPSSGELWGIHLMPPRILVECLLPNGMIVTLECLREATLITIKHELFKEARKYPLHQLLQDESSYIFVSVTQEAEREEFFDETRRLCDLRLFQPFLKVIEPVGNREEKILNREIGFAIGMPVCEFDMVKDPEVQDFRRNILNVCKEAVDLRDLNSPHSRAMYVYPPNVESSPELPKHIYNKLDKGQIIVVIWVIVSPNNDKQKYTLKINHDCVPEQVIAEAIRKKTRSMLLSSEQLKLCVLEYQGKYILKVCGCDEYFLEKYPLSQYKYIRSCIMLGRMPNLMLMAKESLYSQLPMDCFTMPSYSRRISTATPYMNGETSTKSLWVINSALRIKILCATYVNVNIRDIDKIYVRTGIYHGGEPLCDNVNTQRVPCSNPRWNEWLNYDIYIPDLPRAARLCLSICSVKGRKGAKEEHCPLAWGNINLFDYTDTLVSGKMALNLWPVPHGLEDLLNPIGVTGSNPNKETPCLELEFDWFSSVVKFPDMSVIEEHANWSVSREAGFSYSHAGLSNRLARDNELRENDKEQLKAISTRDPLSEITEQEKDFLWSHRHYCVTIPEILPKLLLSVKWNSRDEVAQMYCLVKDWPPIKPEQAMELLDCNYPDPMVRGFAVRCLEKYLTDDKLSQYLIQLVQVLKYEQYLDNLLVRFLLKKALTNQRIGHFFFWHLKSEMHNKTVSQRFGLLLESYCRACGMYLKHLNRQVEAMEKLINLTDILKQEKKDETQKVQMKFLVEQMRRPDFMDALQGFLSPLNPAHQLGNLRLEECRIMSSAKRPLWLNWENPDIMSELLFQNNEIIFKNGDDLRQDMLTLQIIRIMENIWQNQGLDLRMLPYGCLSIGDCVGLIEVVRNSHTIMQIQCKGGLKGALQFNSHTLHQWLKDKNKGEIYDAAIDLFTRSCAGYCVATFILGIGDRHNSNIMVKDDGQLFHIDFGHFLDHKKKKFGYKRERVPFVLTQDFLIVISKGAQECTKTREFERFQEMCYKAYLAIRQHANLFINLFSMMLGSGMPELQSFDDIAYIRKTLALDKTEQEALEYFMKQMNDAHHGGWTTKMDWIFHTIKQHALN
Chain of PIK3CG (human) (P48736 whole entry, looked up): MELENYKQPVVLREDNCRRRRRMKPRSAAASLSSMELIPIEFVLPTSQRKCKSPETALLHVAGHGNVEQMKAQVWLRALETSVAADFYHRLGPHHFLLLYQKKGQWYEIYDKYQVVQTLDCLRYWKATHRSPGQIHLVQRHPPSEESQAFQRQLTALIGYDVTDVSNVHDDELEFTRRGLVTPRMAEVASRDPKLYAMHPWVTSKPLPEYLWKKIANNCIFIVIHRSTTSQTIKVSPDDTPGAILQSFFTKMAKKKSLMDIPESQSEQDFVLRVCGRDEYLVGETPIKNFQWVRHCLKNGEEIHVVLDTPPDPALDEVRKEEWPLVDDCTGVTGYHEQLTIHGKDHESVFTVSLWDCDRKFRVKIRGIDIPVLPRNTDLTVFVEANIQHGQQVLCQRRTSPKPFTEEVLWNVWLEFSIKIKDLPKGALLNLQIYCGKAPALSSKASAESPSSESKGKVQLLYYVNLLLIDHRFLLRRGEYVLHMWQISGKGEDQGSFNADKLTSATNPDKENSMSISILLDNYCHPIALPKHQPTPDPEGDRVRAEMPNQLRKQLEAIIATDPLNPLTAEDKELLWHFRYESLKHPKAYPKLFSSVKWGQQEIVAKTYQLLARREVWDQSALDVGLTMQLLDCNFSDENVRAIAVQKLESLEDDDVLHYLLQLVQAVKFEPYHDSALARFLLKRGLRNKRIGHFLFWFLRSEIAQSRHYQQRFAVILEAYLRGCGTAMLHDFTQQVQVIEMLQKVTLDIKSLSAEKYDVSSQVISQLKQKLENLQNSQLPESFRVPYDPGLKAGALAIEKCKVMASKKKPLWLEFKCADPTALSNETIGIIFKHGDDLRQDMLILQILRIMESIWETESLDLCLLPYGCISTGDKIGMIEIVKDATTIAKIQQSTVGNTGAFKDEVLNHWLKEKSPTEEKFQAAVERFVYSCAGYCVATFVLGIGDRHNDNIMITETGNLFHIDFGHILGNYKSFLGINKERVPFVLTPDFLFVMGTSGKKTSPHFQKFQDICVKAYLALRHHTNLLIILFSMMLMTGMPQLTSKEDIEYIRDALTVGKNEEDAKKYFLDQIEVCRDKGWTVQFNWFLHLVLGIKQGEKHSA

As usually defined, the IC50 is the concentration that inhibits the measured activity by half. High values mean a need for much substance, low ones inhibition by little substance. `O=C(Nc1cc(-c2cccc3[nH]ccc23)cc2[nH]ncc12)c1csc(Cc2ccccc2)n1`: the half-maximal inhibitory concentration (IC50) was 12.6 µM at PIK3CG (human), 0.0794 µM against PIK3CD (Human), over 25.1 µM at PIK3CB (Human) and over 25.1 µM on PIK3CA (human).

On to `Cc1nc(C(=O)Nc2cc(-c3cnc(Cl)c(NS(C)(=O)=O)c3)cc3[nH]ncc23)cs1`, for which the IC50 on PIK3CG (human) came out at 0.0501 µM; on PIK3CD (Human), 0.002 µM; on PIK3CB (Human) it was 1 µM; against PIK3CA (human) it was 0.316 µM.

Turning to `Cc1cnc(-c2cc(-c3cccc4[nH]ccc34)cc3[nH]ncc23)o1`, the IC50 was 0.398 µM against PIK3CG (human), 0.0631 µM against PIK3CD (Human), 1.26 µM on PIK3CB (Human) and 10 µM against PIK3CA (human).

Consider `O=C(Nc1cc(-c2cccc3[nH]ccc23)cc2[nH]ncc12)c1cccc(CN2CCCCC2)n1`, for which the IC50 against PIK3CG (human) is over 25.1 µM; against PIK3CD (Human) it was 0.0126 µM; against PIK3CB (Human), 12.6 µM; on PIK3CA (human), over 25.1 µM.

As to `C[C@@H]1CN(Cc2coc(-c3cc(-c4cccc5[nH]ccc45)cc4[nH]ncc34)n2)C[C@H](C)O1`, the IC50 came out at 2.51 µM on PIK3CG (human), 0.00501 µM on PIK3CD (Human), 1.26 µM at PIK3CB (Human) and 12.6 µM against PIK3CA (human).

As for `Cc1nc(C(=O)Nc2cc(-c3cccc(O)c3)cc3[nH]ncc23)cs1`, the IC50 was determined as 12.6 µM on PIK3CG (human), 0.316 µM against PIK3CD (Human), 7.94 µM against PIK3CB (Human) and 15.8 µM against PIK3CA (human).

On to `Cc1nc(C(=O)Nc2cc(-c3cccc4c3ccn4C)cc3[nH]ncc23)cs1`, for which the IC50 on PIK3CG (human) is over 25.1 µM; at PIK3CD (Human), 5.01 µM; on PIK3CB (Human), over 25.1 µM; at PIK3CA (human), over 25.1 µM.

Regarding `CC(C)N1CCN(Cc2coc(-c3cc(-c4cccc5[nH]ccc45)cc4[nH]ncc34)n2)CC1`, the IC50 on PIK3CG (human) was determined as 15.8 µM; on PIK3CD (Human) it was 0.00398 µM; on PIK3CB (Human), 3.98 µM; against PIK3CA (human), 12.6 µM.

Turning to `Cc1nc(C(=O)Nc2cc(-c3cc(Cl)cc4[nH]ccc34)cc3[nH]ncc23)cs1`, the IC50 against PIK3CG (human) amounted to 3.98 µM; against PIK3CD (Human), 0.00794 µM; on PIK3CB (Human), 1 µM; against PIK3CA (human), 5.01 µM.

For the origin of these results see the Kinase Knowledgebase extract (Sharma et al. 2016).
